Source: patent publication US20120083522A1, “MODULATION OF INFLAMMATORY RESPONSES BY FACTOR XI” (Isis Pharmaceuitcals, inc., priority 2009, published 2012)
e = 2'-O-(2-methoxyethyl) (MOE); d = 2'-deoxy (DNA)

Tests used:
human Factor XI mRNA [1] = assay: Dose-dependent antisense inhibition in HepG2 cells, lipofectin (Example 2); format: cell-based; settings: approximately 16 hours
Method: Cells were plated at a density of 10,000 cells per well and transfected using lipofectin reagent with 9.375 nM, 18.75 nM, 37.5 nM, 75 nM, and 150 nM concentrations of antisense oligonucleotide, as specified in Table 3. After a treatment period of approximately 16 hours, RNA was isolated from the cells and Factor XI mRNA levels were measured by quantitative real-time PCR. Human Factor XI primer probe set RTS 2966 (forward sequence: […], incorporated herein as SEQ ID NO: 3; reverse sequence: […], incorporated herein as SEQ ID NO: 4; probe sequence: TTGTCTACTGAAGCACACCCAAACAGGGAX, wherein X is the fluorophore, incorporated herein as SEQ ID NO: 5) was used to measure mRNA levels. Factor XI mRNA levels were adjusted according to total RNA content, as measured by RIBOGREEN®. Results are presented as percent inhibition of Factor XI, relative to untreated control cells.

human Factor XI mRNA [2] = assay: Antisense inhibition in HepG2 cells by microwalk gapmers, 75 nM, lipofectin (Example 3); format: cell-based; settings: HepG2 cells, 75 nM, oligonucleotides targeted to nucleobases 1275 to 1318 of SEQ ID NO: 1
Method in brief: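 HepG2 cells (10,000 per well) were transfected with 75 nM gapmer using lipofectin and treated for about 24 h. Factor XI mRNA was quantified by real-time PCR, normalized to RiboGreen total RNA and expressed as percent inhibition versus untreated controls.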

human Factor XI mRNA [3] = assay: Antisense inhibition in HepG2 cells by microwalk gapmers, 8,000 nM, electroporation (Example 14); format: cell-based; settings: HepG2 cells, 8,000 nM
Method in brief: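 Percent reduction of Factor XI transcript, relative to untreated controls, by real-time PCR with RIBOGREEN normalisation. Readout taken about 24 h after electroporating HepG2 cells with 8,000 nM oligonucleotide. Gapmers are 5-10-5, 5-8-5 or 6-8-6 MOE wings, phosphorothioate backbone.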

[4] = set-up: species or system Sprague-Dawley rats; settings: rat, in vivo, sc, 20 mg/kg
Method: The concentration of the full-length oligonucleotide as well as the total oligonucleotide concentration (including the degraded form) was measured. The method used is a modification of previously published methods (Leeds et al., 1996; Geary et al., 1999) which consist of a phenol-chloroform (liquid-liquid) extraction followed by a solid phase extraction. An internal standard (ISIS 355868, a 27-mer 2′-O-methoxyethyl modified phosphorothioate oligonucleotide, […], designated herein as SEQ ID NO: 270) was added prior to extraction. […] The results are presented in Tables 98 and 99, expressed as μg/g liver or kidney tissue.

human Factor XI mRNA [5] = assay: Dose-dependent inhibition and IC50 in HepG2 cells, electroporation (Example 15); format: cell-based
Method: Cells were plated at a density of 20,000 cells per well and transfected using electroporation with 123.46 nM, 370.37 nM, 1,111.11 nM, 3,333.33 nM and 10,000 nM concentrations of antisense oligonucleotide, as specified in Table 52. After a treatment period of approximately 16 hours, RNA was isolated from the cells and Factor XI mRNA levels were measured by quantitative real-time PCR. Human Factor XI primer probe set RTS 2966 was used to measure mRNA levels. Factor XI mRNA levels were adjusted according to total RNA content, as measured by RIBOGREEN. Results are presented as percent inhibition of Factor XI, relative to untreated control cells.

human Factor XI mRNA [6] = assay: Dose-dependent inhibition in HepG2 cells, lipofectin (Example 4); format: cell-based; settings: 16 hours
Method in brief: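 Read-out was percent inhibition of Factor XI mRNA relative to untreated controls, by qRT-PCR (RTS 2966) adjusted for RIBOGREEN-measured total RNA. Cells received antisense oligonucleotide at 9.375 to 75 nM (four levels) via lipofectin. Treatment lasted approximately 16 hours, with plating at 10,000 cells per well.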

human Factor XI mRNA [7] = assay: Dose-dependent inhibition in HepG2 cells, electroporation (Example 4); format: cell-based; settings: 16 hours
Method in brief: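 HepG2 cells electroporated with 0.7, 2.2, 6.7 or 20 μM antisense gapmer and harvested after ~16 h. Factor XI mRNA quantified by qRT-PCR (primer probe set RTS 2966), normalised to total RNA (RIBOGREEN). Reported as percent inhibition versus untreated control cells.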

| Substance | percent inhibition of Factor XI (human Factor XI mRNA [1]; 9.375 nM) | percent inhibition of Factor XI (human Factor XI mRNA [1]; 18.75 nM) | percent inhibition of Factor XI (human Factor XI mRNA [1]; 37.5 nM) | percent inhibition of Factor XI (human Factor XI mRNA [1]; 75 nM) | percent inhibition of Factor XI (human Factor XI mRNA [1]; 150 nM) | % inhibition of human Factor XI mRNA levels (human Factor XI mRNA [2]) | Percent inhibition of human Factor XI mRNA levels (human Factor XI mRNA [3]) | Half-life in the liver and kidney [4] | percent inhibition of Factor XI mRNA (human Factor XI mRNA [5]; electroporation, 123.47 nM) | percent inhibition of Factor XI mRNA (human Factor XI mRNA [5]; electroporation, 370.37 nM) | percent inhibition of Factor XI mRNA (human Factor XI mRNA [5]; electroporation, 1,111.11 nM) | percent inhibition of Factor XI mRNA (human Factor XI mRNA [5]; electroporation, 3,333.33 nM) | percent inhibition of Factor XI mRNA (human Factor XI mRNA [5]; electroporation, 10,000.0 nM) | further results |
| --- | --- | --- | --- | --- | --- | --- | --- | --- | --- | --- | --- | --- | --- | --- |
| 412223 (antisense ACAGTTTCTGGCAGGCCTCG; sugars from the 5' end e5 d10 e5, backbone and methylation of C not given here) [compound 412223] | 33% | 48% | 62% | 76% | 81% | 85% | 62% | 22 days |  |  |  |  |  |  |
| 412224 (antisense GCATTGGTGCACAGTTTCTG; sugars from the 5' end e5 d10 e5, backbone and methylation of C not given here) [compound 412224] | 24% | 45% | 57% | 70% | 81% | 93% | 84% | 17 days |  |  |  |  |  |  |
| 412225 (antisense GCAGCGGACGGCATTGGTGC; sugars from the 5' end e5 d10 e5, backbone and methylation of C not given here) [compound 412225] | 32% | 42% | 65% | 78% | 73% | 86% | 86% | 21 days |  |  |  |  |  |  |
| 413481 (antisense GGTGCACAGTTTCTGGCAGG; sugars from the 5' end e5 d10 e5, backbone and methylation of C not given here) [compound 413481] | 22% | 38% | 56% | 67% | 83% |  | 82% | 21 days |  |  |  |  |  |  |
| 413482 (antisense GGACGGCATTGGTGCACAGT; sugars from the 5' end e5 d10 e5, backbone and methylation of C not given here) [compound 413482] | 26% | 39% | 59% | 74% | 82% | 89% | 88% | 20 days |  |  |  |  |  |  |
| 416851 (antisense GTGCACAGTTTCTGGCAGGC; 5-10-5 gapmer, wing sugar chemistry not given here, further chemistry not given here) [compound 416851] |  |  |  |  |  | 88% | 89% | 24 days | 13% | 35% | 36% | 64% | 72% |  |
| 416856 (antisense GGCATTGGTGCACAGTTTCT; 5-10-5 gapmer, wing sugar chemistry not given here, further chemistry not given here) [compound 416856] |  |  |  |  |  | 95% | 84% | 19 days | 12% | 23% | 35% | 59% | 83% | percent inhibition of Factor XI mRNA, relative to untreated control cells (human Factor XI mRNA [6]; 9.375 nM): 21%; percent inhibition of Factor XI mRNA, relative to untreated control cells (human Factor XI mRNA [6]; 18.75 nM): 45%; percent inhibition of Factor XI mRNA, relative to untreated control cells (human Factor XI mRNA [6]; 37.5 nM): 58%; percent inhibition of Factor XI mRNA, relative to untreated control cells (human Factor XI mRNA [6]; 75 nM): 74%; percent inhibition of Factor XI mRNA, relative to untreated control cells (human Factor XI mRNA [7]; 0.7 μM): 0%; percent inhibition of Factor XI mRNA, relative to untreated control cells (human Factor XI mRNA [7]; 2.2 μM): 29%; percent inhibition of Factor XI mRNA, relative to untreated control cells (human Factor XI mRNA [7]; 6.7 μM): 47%; percent inhibition of Factor XI mRNA, relative to untreated control cells (human Factor XI mRNA [7]; 20 μM): 93% |
| 416859 (antisense GACGGCATTGGTGCACAGTT; 5-10-5 gapmer, wing sugar chemistry not given here, further chemistry not given here) [compound 416859] |  |  |  |  |  | 90% | 85% | 19 days |  |  |  |  |  |  |
| 416860 (antisense CGGACGGCATTGGTGCACAG; 5-10-5 gapmer, wing sugar chemistry not given here, further chemistry not given here) [compound 416860] |  |  |  |  |  | 88% | 89% | 21 days | 0% | 28% | 39% | 41% | 40% |  |
| 416861 (antisense GCGGACGGCATTGGTGCACA; 5-10-5 gapmer, wing sugar chemistry not given here, further chemistry not given here) [compound 416861] |  |  |  |  |  | 92% | 90% | 25 days | 0% | 15% | 27% | 66% | 80% |  |
| 416863 (antisense CAGCGGACGGCATTGGTGCA; 5-10-5 gapmer, wing sugar chemistry not given here, further chemistry not given here) [compound 416863] |  |  |  |  |  | 83% | 86% | 20 days |  |  |  |  |  |  |
| 416866 (antisense CTGGCAGCGGACGGCATTGG; 5-10-5 gapmer, wing sugar chemistry not given here, further chemistry not given here) [compound 416866] |  |  |  |  |  | 88% | 84% | 16 days |  |  |  |  |  |  |
| 416867 (antisense ACTGGCAGCGGACGGCATTG; 5-10-5 gapmer, wing sugar chemistry not given here, further chemistry not given here) [compound 416867] |  |  |  |  |  | 83% | 85% | 19 days |  |  |  |  |  |  |
